Measured values from US9512175B2, “Macrocyclic inhibitors of flaviviridae viruses” (Gilead Sciences, Inc., priority 2012, dated 2016).
Read-outs that look alike come from different tables or passages of the source.

Assays:
[1] = test system: HCV replicon (Replicon 1a); assay: anti-HCV activity in Huh-7 cell line harboring a HCV replicon (Replicon 1a); assay type: cell-based; details: Hepatitis C virus, Huh-7, 72 h
[2] = target: cyclophilin A (Homo sapiens, UniProt P62937); assay: Cyclophilin A TR-FRET competitive binding assay; details: IC50 ranges, competition with CsA-Cy5 for His-tagged CypA, two-hour incubation
Method: Cyclophilin A TR-FRET Competitive Binding Assay
Inhibitor potency was measured using a competitive binding assay with a time-resolved fluorescence resonance energy transfer (TR-FRET) readout. […] An IC50 value was calculated using a four-parameter logistic fit.

[3] = read-out: Replicon 1a % inhibition at 1 μM
[4] = read-out: Replicon 1a % inhibition at 1 μM, 1 μM, human hepatoma Huh-7 HCV replicon cells, 3 days, luciferase readout

cyclophilin A, sequence (P62937 whole entry, species assumed): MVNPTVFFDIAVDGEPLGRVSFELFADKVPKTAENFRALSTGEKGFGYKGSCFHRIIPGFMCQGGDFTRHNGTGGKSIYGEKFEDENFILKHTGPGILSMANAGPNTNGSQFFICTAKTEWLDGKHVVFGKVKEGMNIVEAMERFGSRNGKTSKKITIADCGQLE

Compound	inhibition at 1 µM [1, 3] [%]	IC50 ([2]; read-out: TR-FRET) [nM]	inhibition at 1 µM [1, 4] [%]	IC50 ([2]; TR-FRET) [nM]
CC(C)[C@@H]1NC(=O)C(C)(C)/C=C/c2ccc3ccc(nc3c2)[C@@H](C(F)(F)F)NC(=O)[C@@H]2CCCN(N2)C(=O)[C@H](C)NC1=O [Compound 13]	87	< 100		
CC(C)[C@@H]1NC(=O)C/C=C/c2ccc3ncc(cc3c2)[C@@H](C)OC(=O)[C@@H]2CCCN(N2)C(=O)[C@H](C)NC1=O [Compound 14]		< 100	94	
CC(C)[C@@H]1NC(=O)C/C=C/c2cnc3ccc(cc3c2)[C@@H](C)OC(=O)[C@@H]2CCCN(N2)C(=O)[C@H](C)NC1=O [Compound 15]		< 100	99	
CC(C)[C@@H]1NC(=O)C/C=C/c2ccc3ccc(cc3n2)[C@@H](C)OC(=O)[C@@H]2CCCN(N2)C(=O)[C@H](C)NC1=O [Compound 16]		101 to 1000	94	
CC(C)[C@@H]1NC(=O)C(C)(C)/C=C/c2ccc3cnc(cc3c2)[C@@H](C)OC(=O)[C@@H]2CCCN(N2)C(=O)[C@H](C)NC1=O [Compound 17]		< 100	100	
CC(C)[C@@H]1NC(=O)C(C)(C)CCc2ccc3cnc(cc3c2)[C@@H](C)OC(=O)[C@@H]2CCCN(N2)C(=O)[C@H](C)NC1=O [Compound 18]		< 100	94	
CC[C@@H]1/C=C/c2cc3cc(ccc3cn2)[C@@H](C)OC(=O)[C@@H]2CCCN(N2)C(=O)[C@H](C)NC(=O)[C@H](C(C)C)NC1=O [Compound 19]		< 100	97	
CC1/C=C/c2cc3cc(ccc3cn2)[C@@H](C)OC(=O)[C@@H]2CCCN(N2)C(=O)[C@H](C)NC(=O)[C@H](C(C)C)NC1=O (some centres unmarked) [Compound 20]		< 100	99	
CC(C)[C@@H]1NC(=O)[C@H](C)C/C=C/c2cc3cc(ccc3cn2)[C@@H](C)OC(=O)[C@@H]2CCCN(N2)C(=O)[C@H](C)NC1=O [Compound 21]		< 100	93	
CC(C)[C@@H]1NC(=O)C/C=C/c2cc3cc(ccc3cn2)[C@@H](C(F)(F)F)NC(=O)[C@@H]2CCCN(N2)C(=O)[C@H](C)NC1=O [Compound 23]		< 100	99	
CO[C@@H]1CC/C=C/c2ccc3c(c2)[C@@H](CC3)N(C)C(=O)[C@@H]2CCCN(N2)C(=O)[C@H](C)NC(=O)[C@H](C(C)C)NC(=O)[C@@H]1C [Compound 25]	71			101 to 1000
CC(C)[C@@H]1NC(=O)[C@H](C)/C=C/c2ccc3ccc(nc3c2)[C@@H](C)OC(=O)[C@@H]2CCCN(N2)C(=O)[C@H](C)NC1=O [Compound 26]	99			< 100
CC(C)[C@@H]1NC(=O)[C@@H](C)/C=C/c2ccc3ccc(nc3c2)[C@@H](C)OC(=O)[C@@H]2CCCN(N2)C(=O)[C@H](C)NC1=O [Compound 27]	100			< 100
CO[C@@H]1CC/C=C/c2cccc(c2)C2CCCCN2C(=O)[C@@H]2CCCN(N2)C(=O)[C@H](C)NC(=O)[C@H](C(C)C)NC(=O)[C@@H]1C (some centres unmarked) [Compound 28]		101 to 1000	56	
CC(C)[C@@H]1NC(=O)C/C=C/c2ccc3nnc(cc3c2)[C@@H](C)OC(=O)[C@@H]2CCCN(N2)C(=O)[C@H](C)NC1=O [Compound 32]		< 100	71	
CO[C@@H]1/C=C/c2cc3cc(ccc3cn2)[C@@H](C)OC(=O)[C@@]2(C)CCCN(N2)C(=O)[C@H](C)NC(=O)C(C(C)C)NC(=O)[C@@H]1C (some centres unmarked) [Compound 33]		1000 to 10000	14	
CC(C)[C@@H]1NC(=O)[C@H](C)C/C=C/COc2ccc(F)c(c2)[C@@H](C)OC(=O)C2CCCN(N2)C(=O)[C@H](C)NC1=O (some centres unmarked) [Compound 35]	94			< 100
CC(C)[C@@H]1NC(=O)[C@H](C)CCCCOc2ccc(F)c(c2)[C@@H](C)OC(=O)[C@@H]2CCCN(N2)C(=O)[C@H](C)NC1=O [Compound 36]		< 100	73	
CO[C@@H]1/C=C/COc2cccc(c2)[C@@H](C(C)C)NC(=O)[C@@H]2CCCN(N2)C(=O)[C@H](C)NC(=O)[C@H](C(C)C)NC(=O)[C@@H]1C [Compound 37, (E)-(2R,5S,11 S,14S,17R,18R)-2,14-Diisopropyl-18-methoxy-11,17-dimethyl-22-oxa-3,9,12,15,28-pentaaza-tricyclo[21.3.1.1*5,9*]octacosa-1 (27),19,23,25-tetraene-4,10,13,16-tetraone]	76			< 100
CC(C)[C@@H]1NC(=O)COc2ccc(cc2)-c2cccc(c2)[C@@H](C)OC(=O)[C@@H]2CCCN(N2)C(=O)[C@H](C)NC1=O [Compound 38]		< 100	98	
CC(C)[C@@H]1NC(=O)[C@H](C)Oc2ccc(cc2)-c2cccc(c2)[C@@H](C)OC(=O)[C@@H]2CCCN(N2)C(=O)[C@H](C)NC1=O [Compound 39]		< 100	98	
CC(C)[C@@H]1NC(=O)[C@@H](C)Oc2ccc(cc2)-c2cccc(c2)[C@@H](C)OC(=O)[C@@H]2CCCN(N2)C(=O)[C@H](C)NC1=O [Compound 40]		< 100	96	

Compound	inhibition at 1 µM [1, 3] [%]	IC50 ([2]; read-out: TR-FRET) [nM]	inhibition at 1 µM [1, 4] [%]	IC50 ([2]; TR-FRET) [nM]
CC(C)[C@@H]1NC(=O)COc2ccc(cc2)-c2cccc(n2)[C@@H](C)OC(=O)[C@@H]2CCCN(N2)C(=O)[C@H](C)NC1=O [Compound 41]		< 100	96	
CC(C)[C@@H]1NC(=O)CCn2cc(cn2)-c2cccc(c2)[C@@H](C)OC(=O)[C@@H]2CCCN(N2)C(=O)[C@H](C)NC1=O [Compound 42]		101 to 1000	16	
CC(C)[C@@H]1NC(=O)CCc2ccc(cc2)-c2cccc(c2)[C@@H](C)OC(=O)[C@@H]2CCCN(N2)C(=O)[C@H](C)NC1=O [Compound 43]		< 100	97	
CC(C)[C@@H]1NC(=O)CCc2ccc(cn2)-c2cccc(c2)[C@@H](C)OC(=O)[C@@H]2CCCN(N2)C(=O)[C@H](C)NC1=O [Compound 44]		< 100	78	
CC(C)[C@@H]1NC(=O)CCc2ccc(nc2)-c2cccc(c2)[C@@H](C)OC(=O)[C@@H]2CCCN(N2)C(=O)[C@H](C)NC1=O [Compound 45]		< 100	80	
CC(C)[C@@H]1NC(=O)[C@H](C)CCCc2cc3cc(ccc3cn2)[C@@H](C)OC(=O)[C@@H]2CCCN(N2)C(=O)[C@H](C)NC1=O [Compound 46]		< 100	90	
C[C@@H]1NC(=O)[C@H](CO)NC(=O)C/C=C/c2cc3cc(ccc3cn2)[C@@H](C)OC(=O)[C@@H]2CCCN(N2)C1=O [Compound 47]		101 to 1000	9	
C[C@@H]1NC(=O)[C@H]([C@@H](C)O)NC(=O)C/C=C/c2cc3cc(ccc3cn2)[C@@H](C)OC(=O)[C@@H]2CCCN(N2)C1=O [Compound 48]		< 100	40	
C[C@@H]1NC(=O)[C@H](CCn2ccnn2)NC(=O)C(C)(C)/C=C/c2cc3cc(ccc3cn2)[C@@H](C)OC(=O)[C@@H]2CCCN(N2)C1=O [Compound 50]	12	101 to 1000		
C=CC[C@@H]1NC(=O)C(C)(C)/C=C/c2cc3cc(ccc3cn2)[C@@H](C)OC(=O)[C@@H]2CCCN(N2)C(=O)[C@H](C)NC1=O [Compound 52]		< 100	98	
C[C@@H]1NC(=O)[C@H](C2CCCCC2)NC(=O)C/C=C/c2cc3cc(ccc3cn2)[C@@H](C)OC(=O)[C@@H]2CCCN(N2)C1=O [Compound 53]		101 to 1000	89	
C[C@@H]1NC(=O)[C@H](Cc2ccccc2)NC(=O)C/C=C/c2cc3cc(ccc3cn2)[C@@H](C)OC(=O)[C@@H]2CCCN(N2)C1=O [Compound 54]		< 100	98	
C[C@@H]1NC(=O)[C@H](Cc2cccnc2)NC(=O)C(C)(C)/C=C/c2cc3cc(ccc3cn2)[C@@H](C)OC(=O)[C@@H]2CCCN(N2)C1=O [Compound 55]		101 to 1000	76	
C[C@@H]1NC(=O)[C@H](CCc2ccccc2)NC(=O)C/C=C/c2cc3cc(ccc3cn2)[C@@H](C)OC(=O)[C@@H]2CCCN(N2)C1=O [Compound 56]		101 to 1000	47	
CC(C)[C@@H]1NC(=O)C2(CCOCC2)CCc2cc3cc(ccc3cn2)[C@@H](C)OC(=O)[C@@H]2CCCN(N2)C(=O)[C@H](C)NC1=O [Compound 60]		101 to 1000	65	
CC(C)[C@@H]1NC(=O)CCCCCc2cc3cc(ccc3cn2)[C@@H](C)OC(=O)[C@@H]2CCCN(N2)C(=O)[C@H](C)NC1=O [Compound 62]		101 to 1000	25	
CC(C)[C@@H]1NC(=O)CCCCCCc2cc3cc(ccc3cn2)[C@@H](C)OC(=O)[C@@H]2CCCN(N2)C(=O)[C@H](C)NC1=O [Compound 64]		101 to 1000	35	
CC(C)[C@@H]1NC(=O)Cc2cccc(c2)-c2cc3cc(ccc3cn2)[C@@H](C)OC(=O)[C@@H]2CCCN(N2)C(=O)[C@H](C)NC1=O [Compound 65]		< 100	92	
CC(C)[C@@H]1NC(=O)C(C)(C)c2cccc(c2)-c2cc3cc(ccc3cn2)[C@@H](C)OC(=O)C2CCCN(N2)C(=O)[C@H](C)NC1=O (some centres unmarked) [Compound 67]		< 100	97	
CC(C)[C@@H]1NC(=O)C(C)(C)COc2cc3cc(ccc3cn2)[C@@H](C)OC(=O)[C@H]2CCCN(N2)C(=O)[C@H](C)NC1=O [Compound 69]		1000 to 10000	19	
C[C@@H]1NC(=O)[C@H](CCn2cc(CO)nn2)NC(=O)C(C)(C)/C=C/c2cc3cc(ccc3cn2)[C@@H](C)OC(=O)[C@@H]2CCCN(N2)C1=O [Compound 72]	0	101 to 1000		
